For four molecules, tumor inhibition rate results are on record in patent US10980782B2.

What all share (format): in vivo
Assay [1] has as its system human colorectal cancer HCT-15. In words: Human tumor xenograft in nude mice, tumor inhibition rate, HCT-15. The following applies: HCT-15 xenograft. On the procedure: (§1) 1) Number of animals: there are 6 nude mice for each experimental group and positive control group; weighing: 20-21 g.
(§2) 2) Dosage and regimen of administration: the dose is described in the portion of the experimental results. The injection volume is 0.2 ml/mouse.
(§3) 3) Control groups: the negative control is the corresponding vehicle. The positive control is taxol which is a widely clinically used antitumor drug.
(§4) Under aseptic conditions, a tumor source with vigorous growth was taken to prepare a cell suspension of about 1-3×10^7/ml by a homogenization method. The suspension was injected subcutaneously into subaxillary region of nude mice at 0.2 ml/mouse. The drug was administered upon the tumor touchable. The drug was administered according to the regime. The animals in each group were sacrificed after the administration of three to four weeks. The tumors were taken and weighed, and the tumor inhibition rate was calculated according to the following formula: Tumor inhibition rate %=[(average tumor weight of the negative control group−average tumor weight of the compound administered group)/average tumor weight of the negative control group)×100%
A general note: In xenograft studies the graft and the host belong to different species.

Assay [2] deals with human liver cancer Hep-G2. Briefly: Human tumor xenograft in nude mice, tumor inhibition rate, Hep-G2. The protocol:
as §1, §2, §3, §4

The test system of assay [3] is human lung cancer A549. Briefly: Human tumor xenograft in nude mice, tumor inhibition rate, A549. The following applies: alone at 50 mg/kg/d, iv×3, q3d.
Assay [4] deals with human prostate cancer PC-3. Briefly: Human tumor xenograft in nude mice, tumor inhibition rate, PC-3. The following applies: PC-3 xenograft, 10 mg/kg/time, iv×7qd. The protocol: 1) Number of animals: there are 6 nude mice for each experimental group and positive control group; weighing: 20-21 g. The negative control has two groups.
as §2, §3, §4

Structures are written as SMILES.

In assay [1] (alone at 15 mg/kg/d, iv×7, qd), `O=c1[nH]cc(F)c(=O)[nH]1` [5 Fu, 5-fluorouracil] gave a tumor inhibition rate of 42.71%.

Consider `N.N.[Cl][Pt][Cl]` [DDP, Cisplatin], for which the tumor inhibition rate in assay [2] (alone at 1 mg/kg/d, iv×7, qd) is listed as 45.33%.

In assay [3], `Nc1ccn([C@@H]2O[C@H](CO)[C@@H](O)C2(F)F)c(=O)n1` [Gemcitabine] returned a tumor inhibition rate of 39.23%.

Regarding `CC(=O)O[C@H]1C(=O)[C@@]2(C)[C@H]([C@H](OC(=O)c3ccccc3)[C@]3(O)C[C@H](OC(=O)[C@H](O)[C@@H](NC(=O)c4ccccc4)c4ccccc4)C(C)=C1C3(C)C)[C@]1(OC(C)=O)CO[C@@H]1C[C@@H]2O` [taxol], the tumor inhibition rate is recorded as 52.2% in assay [1] (10 mg/kg/time, iv×7qd); 41.31% in assay [4]; 52.2% in assay [2] (10 mg/kg/time, iv×7qd).
